Data set [1] concerns Mepirizole-induced duodenal ulcer. The data set is described as follows: Anti-ulcer activity: Mepirizole-induced duodenal ulcer. The note with it: for Potency ratio: Cimetidine = 1; for ED50: Rattus norvegicus, 18 h; for rats died: in mepirizole test. In kind it is in vivo, Wistar strain rats. Here is the method: (ii) Mepirizole-induced duodenal ulcer
A test was carried out according to the method of Okabe et al. [S. Okabe et al., Gastrcenterology, 80, 1241 (1981)].
Six Wistar strain rats (male, 200 to 250 g) per group were starved for 24 hours, after which each drug was orally administered, and after 30 minutes, mepirizole was injected subcutaneously at a dose of 200 mg/kg. After 18 hours, the stomach and duodenum were removed and fixed with 3% formalin, after which the areas and depths of the ulcers formed in the duodenum were measured under the binocular stereoscopic microscope (10×). The scores were given in 7 grades depending on the areas and depths of the ulcers, and the sum total of the scores was taken as the ulcer index. The scores were given as follows:
That is to say, the score is 0 at an ulcer area of 0 to 0.2 mm^2, 1 at 0.2 to 1.0 mm^2, 2 at 1 to 3 mm^2, 3 at 3 to 6 mm^2, 4 at 6 to 10 mm^2,5 at 10 mm^2 or more, the ulcer in the condition immediately before perforation is scored as 6, and the ulcer which had caused perforation is scored as 7.
(§1) To a control group was administered 0.5% Tween 80 physiological saline. The inhibition percentage was determined from the following equation: [formula]

Data set [2] has as its system Stress ulcer induced by water-immersion. The data set is described as follows: Anti-ulcer activity: Stress ulcer induced by water-immersion. In kind it is in vivo, Wistar rats. The note with it: for Potency ratio: Cimetidine = 1; for ED50: Rattus norvegicus, 15 h. Here is the method:
(iii) Stress ulcer induced by water-immersion
An experiment was carried out according to the method of Takagi et al. [K. Takagi et al., Jap.
Six Wistar rats (male, 230 to 280 g) per group were starved for 24 hours, after which each drug was orally administered. After 30 minutes, the rats were placed in stress cage, immersed in water at 23° C. to the depth of xiphoid, and allowed to stand therein for 15 hours. Thereafter, the stomach of each rat was removed and then fixed with 3% formalin, after which the areas of the ulcers formed were measured under the binocular stereoscopic microscope (10×), and the sum total of the areas was taken as the ulcer index. To a control group was administered 0.5% Tween 80 physiological saline.
The inhibition percentage was determined from the following equation: [formula]

Data set [3] relates to gastric acid secretion. The experiment in a line: Inhibitory effect on gastric acid secretion, pylorus ligation method (histamine). The format is in vivo, Wistar strain rats. Conditions: Rattus norvegicus, read-out: Inhibition percentage (gastric acid secretion); for inhibition in vivo at 1 mg/kg: oral, histamine 25 mg/kg s.c. The protocol:
Five to six Wistar strain rats (male, 190 to 230 g) per group were starved for 35 hours, after which each drug was orally administered, and after 2 hours, the pylorus of each rat was ligated under ether anesthesia. […] After 3 hours, each rat was killed, after which the cardiac portion was ligated, and the stomach was removed. After 1 ml of distilled water was injected into the stomach, the gastric juice was collected by centrifugation and its volume was measured. The acidity of the gastric juice was measured by titrating 1 ml of the gastric juice with a 0.1N aqueous sodium hydroxide solution, taking pH 7.0 as the end-point. Physiological saline was administered to a control group.
The inhibition percentage of gastric acid secretion was determined from the following equation: [formula]

Data set [4] concerns gastric acid secretion. The experiment in a line: Inhibitory effect on gastric acid secretion, perfused stomach preparation of anesthetized rat (histamine stimulated). The format is in vivo, Wistar strain rats. The note with it: intravenous; for ED100: Rattus norvegicus, cumulative, histamine 30 μg/kg/min, read-out: Dose for complete inhibition; for Duration: time from complete inhibition until pH of perfusate became 4. The gist of the method: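 Urethane-anesthetized, 18 h-fasted male Wistar rats (200 to 250 g); stomach perfused at 1 ml/min with saline at pH about 10, with perfusate pH recorded continuously under iv histamine 30 μg/kg/min. Drug given iv cumulatively once secretion steady (pH 3.3±0.2), each dose after a plateau; n=3 per dose.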

Another data set concerns Indomethacin ulcer. The experiment in a line: Anti-ulcer activity: Indomethacin ulcer. In kind it is in vivo, Wistar strain rats. Conditions: for Potency ratio: Cimetidine = 1; for ED50: 5 h. The protocol: Six Wistar strain rats (male, 200 to 250 g) per group were starved for 24 hours, after which each drug was orally administered, and after 30 minutes, Indomethacin was injected subcutaneously at a dose of 30 mg/kg. After 5 hours, each rat was killed, and the stomach was removed and fixed with 3% formalin, after which the lengths of ulcers formed in the stomach was measured under the binocular stereoscopic microscope (10×), and the sum total of the lengths was taken as the ulcer index. To a control group was administered 0.5% Tween 80 physiological saline. The inhibition percentage was determined from the following equation: [formula]

The subject of data set [5] is isolated guinea pig atrium. The experiment in a line: Effect on isolated guinea pig atrium (histamine-induced heart rate). The note with it: for Potency ratio: Cimetidine = 1; for IC50: right atrium, 5×10^-6 M histamine, 30° C., read-out: ID50 (the source's name). Further details: species or system Hartley guinea pig. The protocol: Hartley guinea pig (male, 300 to 400 g) was killed by blood-letting, immediately after which the heart was isolated, and the right atrium was separated in a Krebs-Henseleit solution and used as a preparation. […] The preparation was trained in a bath fluid, and after the heart rate became constant, 5×10^-6 M of histamine was administered. After the heart rate became constant, each drug was administered cumulatively.
The inhibition percentage was determined from the following equation: [formula] HRmin : heart rate before the administration of histamine HRmax : heart rate after the administration of histamine
HRx : heart rate at the time of the administration of each drug.
The number of experiments were five for each dose.

In a further data set the test system is Reserpine ulcer. The experiment in a line: Anti-ulcer activity: Reserpine ulcer. Conditions: oral. The format is in vivo, Wistar strain rats. Here is the method:
An experiment was carried out according to the method of Adami et al. [E. Adami et al., Arch. int.
Ten Wistar strain rats (male, 180 to 200 g) per group were starved for 30 hours, after which each drug was orally administered, and after 1 hour, reserpine was injected subcutaneously at a dose of 10 mg/kg. After 18 hours, the stomach was removed and fixed with 3% formalin, and thereafter the lengths of the ulcers formed in the stomach were measured with callipers. The measured values were converted to the scores described below, and the sum total of the scores was taken as the ulcer index.
That is to say, 1 to 5 pin point ulcers are scored as 1, 6 or more pin point ulcers are scored as 2, ulcers of 1 mm or less in length are scored as 1, ulcers of 1 to 2 mm in length are scored as 2, ulcers of 2 to 4 mm in length are scored as 4, and ulcers of 4 mm or more in length are scored as 8.
as §1

The mark [6] stands for this setting: oral, mepirizole-induced duodenal ulcer, read-out: ID50 (the source's name).
Where [7] appears, read: oral, water-immersion stress ulcer, read-out: ID50 (the source's name).
Setting [8] is: Rattus norvegicus, oral, Indomethacin ulcer, read-out: ID50 (the source's name).
The mark [9] stands for this setting: Rattus norvegicus, oral, read-out: Inhibition percentage.
Setting [10] is: Rattus norvegicus, 10 mg/kg, oral, read-out: Inhibition percentage.
[11] abbreviates: Rattus norvegicus, po, read-out: Inhibition percentage.

Read-outs that look alike come from different tables or passages of the source.

`COc1cccc(C(O)CNC(=C[N+](=O)[O-])NCCSCc2cc(C)c(CN(C)C)s2)c1` (centres unmarked) [compound 9, N-{2-[[5-(dimethylamino)methyl-4-methyl-2-thienyl]methylthio]ethyl}-N'-[2-hydroxy-2-(3-methoxyphenyl)ethyl]-2-nitro-1,1-ethenediamine]: the Inhibition percentage in data set [1] (1 mg/kg, oral) is recorded as -8%; in data set [1] (3 mg/kg, oral), 33%; in data set [1] (10 mg/kg, oral), 93%; in data set [2] (1 mg/kg, oral), 33%; in data set [2] (3 mg/kg, oral), 66%; in data set [2] (10 mg/kg, oral), 86%. The figures for the Inhibition percentage in the data set on Reserpine ulcer (1 mg/kg) and with Reserpine ulcer (3 mg/kg) were 29% and 69%, respectively. Further, the Potency ratio turned out to be 37.7 in data set [1], 9.1 in data set [2], 39.3 with Indomethacin ulcer and 13.7 in data set [5]. Also, the ED50 in data set [1] (setting [6]) amounted to 4.3 mg/kg; in data set [2] (setting [7]), 1.7 mg/kg; in the data set on Indomethacin ulcer (setting [8]), 0.7 mg/kg; in the data set on Reserpine ulcer (Rattus norvegicus, 18 h, reserpine ulcer, read-out: ID50 (the source's name)), 1.8 mg/kg. Further, the figures for the inhibition in vivo at 1 mg/kg with gastric acid secretion [3] and in the data set with Indomethacin ulcer (setting [9]) were 75% and 70%, respectively. In addition, the ED100 in the data set on gastric acid secretion [4] is 0.2 mg/kg. This molecule also displayed a Duration with gastric acid secretion [4] of 190 min. In addition, the inhibition in vivo at 0.3 mg/kg in the data set with Indomethacin ulcer (setting [9]) came out at 6%. Further, the inhibition in vivo at 3 mg/kg with Indomethacin ulcer (setting [9]) amounted to 85%. The inhibition in vivo at 10 mg/kg with Indomethacin ulcer (setting [10]) came to 97%. The IC50 in data set [5] was 245 nM.
Regarding `O=[N+]([O-])C=C(NCCCOc1cccc(CN2CCCCC2)c1)NCC(O)c1ccc(F)cc1` (centres unmarked) [compound 15, N-[2-(4-fluorophenyl)-2-hydroxyethyl]-2-nitro-N'-[3-(3-piperidinomethylphenoxy)propyl]-1,1-ethenediamine], the Inhibition percentage was 2% in data set [1] (1 mg/kg, oral); 29% in data set [1] (3 mg/kg, oral); 93% in data set [1] (10 mg/kg, oral); 42% in data set [2] (1 mg/kg, oral); 69% in data set [2] (3 mg/kg, oral); 83% in data set [2] (10 mg/kg, oral). In addition, the Potency ratio is 36.0 in data set [1], 11.5 in data set [2], 68.8 in the data set with Indomethacin ulcer and 15.4 in data set [5]. The ED50 in data set [1] (setting [6]) was 4.5 mg/kg; in data set [2] (setting [7]), 1.35 mg/kg; in the data set with Indomethacin ulcer (setting [8]) it was 0.4 mg/kg. Moreover, the figures for the inhibition in vivo at 1 mg/kg with gastric acid secretion [3] and in the data set on Indomethacin ulcer (setting [9]) were 77% and 88%, respectively. In the data set on gastric acid secretion [4], the ED100 was determined as 0.06 mg/kg. Moreover, the Duration in the data set with gastric acid secretion [4] came to 180 min. For the same molecule, the inhibition in vivo at 0.3 mg/kg in the data set on Indomethacin ulcer (setting [9]) stood at 37%. For the same molecule, the inhibition in vivo at 3 mg/kg in the data set on Indomethacin ulcer (setting [9]) stood at 92%. In addition, in the data set with Indomethacin ulcer (setting [10]), the inhibition in vivo at 10 mg/kg stood at 98%. Besides, the IC50 in data set [5] amounted to 218 nM.
Consider `CN/C(=N/CCSCc1nc[nH]c1C)NC#N` [Cimetidine, reference compound], for which the Inhibition percentage in data set [1] (100 mg/kg, oral) stood at 43%; in data set [1] (300 mg/kg, oral), 59%; in data set [2] (10 mg/kg, oral), 22%; in data set [2] (30 mg/kg, oral), 94%; in the data set on Reserpine ulcer (100 mg/kg) it was 9.7%. In addition, the rats died entry in data set [1] (100 mg/kg, oral) was “Two of six rats died”; in data set [1] (300 mg/kg, oral), “Four of six rats died”. Also, the ED50 is 162 mg/kg in data set [1] (po, read-out: ID50); 15.5 mg/kg in data set [2] (po, read-out: ID50); 27.5 mg/kg in the data set with Indomethacin ulcer (Rattus norvegicus, po, read-out: ID50). Moreover, the figures for the inhibition in vivo at 10 mg/kg with gastric acid secretion [3] (po) and with Indomethacin ulcer (setting [11]) were 39% and 18%, respectively. In addition, the results for the inhibition in vivo at 30 mg/kg in the data set with gastric acid secretion [3] (po) and with Indomethacin ulcer (setting [11]) were 60% and 50%, respectively. In addition, the inhibition in vivo at 90 mg/kg with gastric acid secretion [3] (po) turned out to be 97%. In the data set on gastric acid secretion [4], this molecule gave a Duration of 16 min. For the same molecule, the inhibition in vivo at 100 mg/kg in the data set with Indomethacin ulcer (setting [11]) stood at 97%. The Potency ratio in data set [5] came to 1. Further, the IC50 in data set [5] was 3350 nM.
With `CN(C)Cc1ccc(CSCCNC(=C[N+](=O)[O-])NCC(O)c2ccc(O)cc2)o1` (centres unmarked) [compound 3, N-{2-[[5-(dimethylamino)methyl-2-furyl]methylthio]ethyl}-N'-[2-hydroxy-2-(4-hydroxyphenyl)ethyl]-2-nitro-1,1-ethenediamine], the Inhibition percentage in data set [1] (1 mg/kg, oral) was determined as 12%; in data set [1] (3 mg/kg, oral), 49%; in data set [1] (10 mg/kg, oral), 97%; in data set [2] (1 mg/kg, oral) it was 12%; in data set [2] (3 mg/kg, oral), 73%; in data set [2] (10 mg/kg, oral), 83%. Also, the Potency ratio is reported as 55.9 in data set [1], 9.0 in data set [2], 8.1 with Indomethacin ulcer and 14.7 in data set [5]. In addition, the ED50 in data set [1] (setting [6]) turned out to be 2.9 mg/kg; in data set [2] (setting [7]), 1.72 mg/kg; with Indomethacin ulcer (setting [8]), 3.4 mg/kg. Besides, the ED100 in the data set with gastric acid secretion [4] amounted to 0.1 mg/kg. For the same molecule, the Duration with gastric acid secretion [4] was found to be 155 min. Also, the inhibition in vivo at 1 mg/kg in the data set with Indomethacin ulcer (setting [9]) is 20%. For the same molecule, in the data set on Indomethacin ulcer (setting [9]), the inhibition in vivo at 3 mg/kg was 51%. For the same molecule, in the data set on Indomethacin ulcer (setting [10]), the inhibition in vivo at 10 mg/kg is 71%. For the same molecule, the IC50 in data set [5] was determined as 228 nM.
